Among the data in PubChem BioAssay AID1549 (Sanford-Burnham Center for Chemical Genomics, 2009) are Kd values, retold here.

The structures appear in SMILES notation. Activity calls are given as the source filed them. The rule behind the calls is not given here. A value given as a limit tells only on which side of the number the result lay.

The target of the experiment is Influenza A virus M2 proton channel (A/TW/4845/1999 H1N1). Put plainly: NMR binding screen, influenza A virus M2 proton channel, Kd (AID 1549). The following applies: M2 protein.
As to `COC(=O)[C@@H]1OC(=O)C2OC23[C@@]1(C)CCC1[C@]2(C)C(C[C@@H](O)[C@]13C)C(C)(C)[C@H](OC(C)=O)C[C@@H]2OC(C)=O` (stereo partly drawn), the Kd (commonly the free concentration of one partner at which half of the binding sites on the other are occupied at equilibrium, for simple one-to-one binding) is > 4 mM (inactive).

Regarding `CC(C)CCCC(C)C1CCC2C3CC(=O)[C@H]4C[C@@H](O)CC[C@]4(C)C3CC[C@]12C` (stereo partly drawn), the Kd is > 4 mM (inactive).

Turning to `Cc1cc(=O)cc(C)n1NC(N)=S`, the Kd is > 4 mM (inactive).

On to `Cc1c(/C=N/O)cnn1C`, for which the Kd is > 4 mM (inactive).

`CC1(C)Cc2cccc(CO)c2O1`: the Kd is > 4 mM (inactive).

Turning to `Nc1nc(SCc2ccc3c(c2)OCO3)n[nH]1`, the Kd is > 4 mM (inactive).

On to `CC(C)(C#N)O[C@@H]1O[C@H](CO)[C@@H](O)[C@H](O)[C@H]1O`, for which the Kd is > 4 mM (inactive).

As for `Cc1ccc(-c2nnc3sc(-c4ccncc4)nn23)cc1`, the Kd was > 4 mM (inactive).

`COc1ccc(C)cc1S(=O)(=O)NC1CCCC1`: the Kd was > 4 mM (inactive).

For `NC1CCN(Cc2ccccc2)CC1`, the Kd is > 4 mM (inactive).

As for `Fc1cccc(F)c1CN1CCN(c2ncccn2)CC1`, the Kd was > 4 mM (inactive).

For `CC(=O)NC(O)C(=O)c1ccccc1` (stereo not drawn), the Kd is > 4 mM (inactive).

With `O=C1CSC(c2ccccc2)N1` (stereo not drawn), the Kd is > 4 mM (inactive).

For the compound `NCc1c[nH]c2ccccc12`, the Kd is > 4 mM (inactive).

`O=C(c1cc2ccccc2o1)c1nc2c(n1O)CCCCC2`: the Kd is > 4 mM (inactive).

For the compound `Cc1cc(=O)n(CC(C)C)c(O)c1C#N`, the Kd is > 4 mM (inactive).

As for `C/C=C1\[C@H]2C=C(C)C[C@]1(N)c1ccc(=O)[nH]c1C2`, the Kd was > 4 mM (inactive).

As for `CC(=O)NC(=S)Nc1ccccc1C(N)=O`, the Kd is > 4 mM (inactive).

Regarding `Cc1nnc(NC(=O)C(C)Sc2nncn2C)s1` (stereo not drawn), the Kd is > 4 mM (inactive).

With `C=C(C)CSc1nc2nc(C)cc(C)n2n1`, the Kd is > 4 mM (inactive).

Consider `CC(=O)Nc1ccc(N(C)C(C)=O)cc1`, for which the Kd is > 4 mM (inactive).

Turning to `COc1cc(C(=O)NCC2CCCO2)cc(OC)c1OC` (stereo not drawn), the Kd was > 4 mM (inactive).

Regarding `CC(=O)Nc1ccc(NC(=O)C2CC2)cc1`, the Kd is > 4 mM (inactive).

Take `CC1(C)Cc2c(C#N)c(N)n(-c3ccccc3)c(=O)c2CO1`: the Kd was > 4 mM (inactive).

In the case of `COC1CC(O[C@H]2CC[C@]3(C=O)C4CC[C@]5(C)C(C6=CC(=O)OC6)CC[C@]5(O)C4CC[C@]3(O)C2)OC(C)C1O` (stereo partly drawn), the Kd was > 4 mM (inactive).

For the compound `NCCc1c[nH]c2ccccc12`, the Kd was > 4 mM (inactive).

As for `O=C(NCC1CCNCC1)c1ccccn1`, the Kd is > 4 mM (inactive).

As to `CC(C)n1nnc2cc(C(=O)O)ccc21`, the Kd was > 4 mM (inactive).

`NS(=O)(=O)c1ccc(NC(=O)C2CC2)cc1`: the Kd is > 4 mM (inactive).

As to `CCNC(=S)Nc1c(C)n(C)n(-c2ccccc2)c1=O`, the Kd was > 4 mM (inactive).

As for `OCC1CCCC1O` (stereo not drawn), the Kd is > 4 mM (inactive).

On to `CC(=O)O[C@H]1CC[C@@]2(C)C(=CCC3C2CC[C@@]2(C)C3CC[C@@H]2C(C)CCCC(C)C)C1` (stereo partly drawn), for which the Kd was > 4 mM (inactive).

With `CC(=O)O[C@@H]1CC2C(C)(C)[C@H](O)C[C@H](O)[C@]2(C)C2CC[C@@]3(C)C(=CC(=O)O[C@H]3c3ccoc3)[C@@]21C` (stereo partly drawn), the Kd is > 4 mM (inactive).

On to `CS(=O)(=O)NC1CCN(Cc2ccccc2)CC1`, for which the Kd was > 4 mM (inactive).

As to `CN(C)C(=O)Oc1ccc(-c2nnco2)cc1`, the Kd was > 4 mM (inactive).

With `c1cc(CNc2ccc3c(c2)OCCO3)ccn1`, the Kd was > 4 mM (inactive).

Consider `CCOc1ccc(C(=O)c2ccc(OC)c(O)c2O)cc1`, for which the Kd was > 4 mM (inactive).

Turning to `COc1cc([C@@H]2c3cc4c(c(O)c3C[C@H]3COC(=O)[C@@H]32)OCO4)cc(OC)c1OC`, the Kd is > 4 mM (inactive).

With `O=c1[nH]cc(S(=O)(=O)Nc2ccccc2)c(=O)[nH]1`, the Kd is > 4 mM (inactive).

`O=C(O[C@@H]1Cc2c(O)cc(O)cc2O[C@@H]1c1cc(O)c(O)c(O)c1)c1cc(O)c(O)c(O)c1`: the Kd was > 4 mM (inactive).

Take `O=C(NCc1ccco1)c1cccc(F)c1`: the Kd was > 4 mM (inactive).

Take `CC(=O)NC(=S)Nc1ccccc1C`: the Kd is > 4 mM (inactive).

Turning to `CCn1c(-c2ccccc2)n[nH]c1=S`, the Kd is > 4 mM (inactive).

As for `NC(=O)c1ccc(N=Cc2ccc[nH]2)cc1`, the Kd was > 4 mM (inactive).

Take `O=C(Nc1nnc(-c2ccco2)o1)c1ccc([N+](=O)[O-])o1`: the Kd was > 4 mM (inactive).

`O=C1CNC(=O)/C1=C/c1ccc(O)cc1`: the Kd is > 4 mM (inactive).

As to `O=CN1CCN(C(=O)c2ccccc2F)CC1`, the Kd was > 4 mM (inactive).

On to `CCN1CCC2(CC1)CC1CC3C=CC1(CN2C(C)=O)O3` (stereo not drawn), for which the Kd was > 4 mM (inactive).

Turning to `Cc1cc(NC(=O)c2cccc(N3C(=O)CCC3=O)c2)no1`, the Kd is > 4 mM (inactive).

Regarding `C/C(N)=C/C(=O)N1CCCCC1`, the Kd was > 4 mM (inactive).

On to `O=C(O)c1cccc(N2C(=O)C3CC=CCC3C2=O)c1` (stereo not drawn), for which the Kd is > 4 mM (inactive).

`CCN1CCc2c(sc(N)c2C#N)C1`: the Kd is > 4 mM (inactive).

Turning to `S=C(c1ccc2c(c1)OCO2)N1CCCC1`, the Kd was > 4 mM (inactive).

On to `Cn1nc(C(=O)Nc2cccnc2)c2ccccc2c1=O`, for which the Kd was > 4 mM (inactive).

For the compound `COC(=O)CC1C(C)(C)C(OC(C)=O)[C@@H]2[C@@H](OC(C)=O)[C@]34O[C@@]2(O)[C@]1(C)C3CC[C@]1(C)C4=CC(=O)O[C@H]1c1ccoc1` (stereo partly drawn), the Kd is > 4 mM (inactive).

Turning to `Cn1nc(C(=O)NC2CCCCC2)c2ccccc2c1=O`, the Kd is > 4 mM (inactive).

Turning to `O=C(O)C1CSC(c2ccccc2)N1` (stereo not drawn), the Kd is > 4 mM (inactive).

As for `C[C@@H]1CCC2[C@](C)(CO)[C@@H](O)CC[C@]2(C)[C@@]12CC[C@@](CO)(CCO)O2` (stereo partly drawn), the Kd is > 4 mM (inactive).

`CC(=O)O[C@H]1C[C@@H](OC(C)=O)C(C)(C)C2C[C@@H](OC(C)=O)[C@]3(C)C([C@H](OC(C)=O)C[C@@]4(C)[C@H](c5ccoc5)OC(=O)[C@H]5O[C@]543)[C@]21C` (stereo partly drawn): the Kd was > 4 mM (inactive).

Consider `O=C(Nc1nnc(-c2ccncc2)o1)c1cccs1`, for which the Kd was > 4 mM (inactive).

In the case of `NS(=O)(=O)c1ccc(NC(=O)C(F)(F)F)cc1`, the Kd is > 4 mM (inactive).

Consider `COC(=O)c1cc(-c2c(C)nn(-c3ccccc3)c2C)n[nH]1`, for which the Kd was > 4 mM (inactive).

With `C[C@H](CCC(=O)O)[C@H]1CCC2C3C(CC[C@@]21C)[C@@]1(C)CC[C@@H](O)C[C@H]1C[C@H]3O` (stereo partly drawn), the Kd is > 4 mM (inactive).

With `CC(O)C(=O)N/N=C/c1cccs1` (stereo not drawn), the Kd was > 4 mM (inactive).

As to `COc1cc2c(cc1OC)[C@@H]1C(=O)c3ccc(O)c(CC=C(C)C)c3O[C@@H]1CO2`, the Kd was > 4 mM (inactive).

On to `O=c1c[n+]([O-])c2ccccc2n1OCc1ccccn1`, for which the Kd is > 4 mM (inactive).

On to `COC(=O)CCSCC(=O)Nc1nccs1`, for which the Kd was > 4 mM (inactive).

With `CCNC(CC(=O)Nc1ccc(F)cc1)C(=O)O` (stereo not drawn), the Kd is > 4 mM (inactive).

Regarding `NCCNC(=S)Nc1ccccc1`, the Kd was > 4 mM (inactive).

Consider `OC1CCN(C(=S)NC2CC2)CC1`, for which the Kd was > 4 mM (inactive).

In the case of `O=C1C2C3C=CC(O3)C2C(=O)N1c1ccccc1` (stereo not drawn), the Kd is > 4 mM (inactive).

Consider `CC1=NNC(=O)C1CCc1ccncc1` (stereo not drawn), for which the Kd is > 4 mM (inactive).

For the compound `Cc1[nH]c2ccccc2c1C=Nn1cncn1`, the Kd is > 4 mM (inactive).

Regarding `CN(C)C(=O)Nc1ccc(F)cc1F`, the Kd is > 4 mM (inactive).

On to `c1ccc(-c2nc3ccccc3nc2-c2ccccn2)nc1`, for which the Kd is > 4 mM (inactive).

As to `CC(=O)N(C)Cc1nc2ccccc2n1C`, the Kd is > 4 mM (inactive).

For the compound `COc1cccc(C(=O)Nc2c(C)n[nH]c2C)c1`, the Kd was > 4 mM (inactive).

Turning to `O=C(O)CCN1CCc2ccccc2C1c1ccncc1` (stereo not drawn), the Kd was > 4 mM (inactive).

For `CCCNC(=O)CSc1ncccc1C(=O)O`, the Kd is > 4 mM (inactive).

Consider `O=C1CNC(=O)N1Cc1ccc(F)cc1`, for which the Kd is > 4 mM (inactive).

As to `O=C(O)C1CC(=O)N(C2Cc3ccccc3C2)C1` (stereo not drawn), the Kd is > 4 mM (inactive).

Turning to `O=C(O)Cc1csc(-c2ccccc2)n1`, the Kd was > 4 mM (inactive).

For the compound `c1ccc(CCc2nc(-c3cccnc3)no2)cc1`, the Kd was > 4 mM (inactive).

In the case of `O=c1/c(=C\c2cccnc2)sc2nc3ccccc3n12`, the Kd was > 4 mM (inactive).

In the case of `NC(=O)CN=Cc1c(O)[nH]c2ccccc12`, the Kd is > 4 mM (inactive).

For `CNC(=O)Oc1ccc2c(c1)[C@]1(C)CCN(C)[C@@H]1N2C`, the Kd is > 4 mM (inactive).

For `O=C(Nc1ccccc1)N1CCOCC1`, the Kd is > 4 mM (inactive).

With `Oc1cc(O)c2c(c1)O[C@H](c1ccc(O)c(O)c1)[C@H](O)C2`, the Kd is > 4 mM (inactive).

In the case of `CNS(=O)(=O)c1ccc2[nH]c(=O)[nH]c2c1`, the Kd was > 4 mM (inactive).

As for `Cn1cccc1C(=O)NS(=O)(=O)c1ccccc1Cl`, the Kd was > 4 mM (inactive).

On to `O=c1[nH]cc(COCc2ccccc2)c(=O)[nH]1`, for which the Kd is > 4 mM (inactive).

Regarding `O=C1NC(=O)/C(=C/c2ccc(O)cc2)N1`, the Kd was > 4 mM (inactive).

Consider `Cc1ccc(-c2nn(C)c(=O)c3ccccc23)cc1CO`, for which the Kd is > 4 mM (inactive).

Regarding `NC(CC(=O)O)c1ccccc1` (stereo not drawn), the Kd was > 4 mM (inactive).

With `CC1(C)CC2C1CCC1(C)OC1CCC2(C)O` (stereo not drawn), the Kd was > 4 mM (inactive).

Regarding `O=C(NN=C1CCCC1)c1ccncc1`, the Kd is > 4 mM (inactive).

In the case of `O=C(O)CCC(=O)c1cccc2ccccc12`, the Kd is > 4 mM (inactive).

`Cc1noc(C)c1C(=O)Nc1sc(C)c(C)c1C#N`: the Kd was > 4 mM (inactive).
